Data from patent US10688093B2, “Methods, compositions, and uses of novel Fyn kinase inhibitors” (priority 2015, dated 2020).

molecular target: full-length recombinant human FYN A (Homo sapiens (Human), UniProt P06241); assay: ADP-Glo Kinase Assay of FYN kinase inhibition; format: biochemical; details: primary screen, initial compounds
Method in brief: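 GST-tagged full-length FYN A (baculovirus, Sf9) at 3 pg preincubated 30 min RT with compound (10-point 3-fold series from 10 μM) in Tris pH 7.5/MgCl2 buffer. 12-mer tyrosine peptide plus 12.5 pmol ATP added, 90 min RT; ADP measured by ADP-Glo luminescence, IC50 from dose-response.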

full-length recombinant human FYN A, sequence (P06241 whole entry): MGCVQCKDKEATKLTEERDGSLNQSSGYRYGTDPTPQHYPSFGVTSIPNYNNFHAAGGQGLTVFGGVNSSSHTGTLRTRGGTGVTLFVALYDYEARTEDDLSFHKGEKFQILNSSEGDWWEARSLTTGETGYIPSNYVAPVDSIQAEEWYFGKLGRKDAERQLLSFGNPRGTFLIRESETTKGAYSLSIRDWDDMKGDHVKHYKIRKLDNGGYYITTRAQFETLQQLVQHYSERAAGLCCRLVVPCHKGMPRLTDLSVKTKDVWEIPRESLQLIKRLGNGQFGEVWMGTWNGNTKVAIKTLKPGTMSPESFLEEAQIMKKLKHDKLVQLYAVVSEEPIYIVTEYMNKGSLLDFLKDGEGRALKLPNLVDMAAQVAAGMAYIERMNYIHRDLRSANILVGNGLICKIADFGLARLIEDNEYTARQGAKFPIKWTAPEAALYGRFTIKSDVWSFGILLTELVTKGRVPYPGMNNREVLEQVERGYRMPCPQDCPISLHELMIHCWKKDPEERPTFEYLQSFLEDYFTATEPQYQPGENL

First: Cn1cc(-c2cnc3sc(NCc4ccco4)nn23)cn1 [Compound 580, N-(2-furylmethyl)-5-(1-methylpyrazol-4-yl)imidazo [2,1-b][1,3,4] thiadiazol-2-amine]
Second: COc1cncc(-c2cnc3sc(NCc4cccs4)nn23)c1 [Compound 581, 5-(5-methoxy-3-pyridyl)-N-(2-thienylmethyl) imidazo[2,1-b] [1,3,4]thiadiazol-2-amine]
The IC50 of the first is 7.7-fold higher: 5.64 µM for the first, 0.729 µM for the second.

First: COc1ccc(-c2cnc3sc(NCC(C)C)nn23)cc1OC [Compound 582, 5-(3,4-dimethoxy-phenyl)-N-isobutyl-imidazo [2,1-b][1,3,4] thiadiazol-2-amine]
Second: CC(=O)c1cccc(-c2cnc3sc(NCC(C)C)nn23)c1 [Compound 583, 1-[3-[2-(isobutyl-amino)imidazo [2,1-a][1,3,4]thiadiazol-5-yl]phenyl] ethanone]
The IC50 of the first is 5.5-fold lower: 2.75 µM for the first, 15.1 µM for the second. The first is the more potent here.

c1ccc(CNc2nn3c(-c4cccnc4)cnc3s2)cc1 [Compound 584, N-benzyl-5-(3-pyridyl)imidazo [2,1-b][1,3,4] thiadiazol-2-amine] and Cc1ccccc1CNc1nn2c(-c3cccnc3)cnc2s1 [Compound 589, N-(o-tolylmethyl)-5-(3-pyridyl) imidazo[2,1-b] [1,3,4]thiadiazol-2-amine] are within 1.5-fold of each other in IC50: 0.839 µM for the first, 1.08 µM for the second.

First: COc1cncc(-c2cnc3sc(NCc4ccccc4)nn23)c1 [Compound 585, N-benzyl-5-(5-methoxy-3-pyridyl)imidazo [2,1-b][1,3,4] thiadiazol-2-amine]
Second: COc1ccc(CNc2nn3c(-c4cncc(OC)c4)cnc3s2)cc1 [Compound 588, N-[(4-methoxyphenyl)methyl]-5-(5-methoxy-3-pyridyl)imidazo [2,1-3][1,3,4] thiadiazol-2-amine]
The IC50 of the first is 28-fold lower: 0.343 µM for the first, 9.65 µM for the second. The first is the more potent here.

Going from c1cncc(-c2cnc3sc(NCC4CCOCC4)nn23)c1 [Compound 586, 5-(3-pyridyl)-N-(tetrahydropyran-4-ylmethyl) imidazo[2,1-b] [1,3,4]thiadiazol-2-amine] to COc1cncc(-c2cnc3sc(NCC4CCOCC4)nn23)c1 [Compound 587, 5-(5-methoxy-3-pyridyl)-N-(tetrahydro-pyran-4-ylmethyl)imidazo [2,1-d][1,3,4] thiadiazol-2-amine], the IC50 falls from 4.85 µM to 0.384 µM (13-fold).

First: CN1CCN(c2ccc(Nc3cc4c(cn3)cc(-c3cccc(C(F)(F)F)c3)n4C)cc2)CC1 [Compound 590, 1-methyl-N-[4-(4-methylpiperazin-1-yl)phenyl]-2-[3-(trifluoromethyl)phenyl]pyrrolo [3,2-c]pyridin-6-amine]
Second: CN1CCN(c2ccc(Nc3cc4c(cn3)cc(-c3cccc(F)c3)n4C)cc2)CC1 [Compound 592, 2-(3-fluorophenyl)-1-methyl-N-[4-(4-methylpiperazin-1-yl)phenyl] pyrrolo[3,2-c]pyridin-6-amine]
The IC50 of the first is 2.3-fold higher: 30 µM for the first, 12.9 µM for the second.

First: Cn1c(-c2cccc(C(F)(F)F)c2)cc2cnc(Nc3ccncn3)cc21 [Compound 591, 1-methyl-N-pyrimidin-4-yl-2-[3-(trifluoro-methyl)phenyl] pyrrolo[3,2-c]pyridin-6-amine]
Second: Cn1c(-c2cccc(F)c2)cc2cnc(Nc3ccncn3)cc21 [Compound 593, 2-(3-fluorophenyl)-1-methyl-N-pyrimidin-4-yl-pyrrolo[3,2-c]pyridin-6-amine]
The IC50 of the first is 1.8-fold higher: 16.8 µM for the first, 9.09 µM for the second.

Compared with NC1=C(c2nc3ccccc3[nH]2)C(=O)CN1c1ccc2c(c1)OCO2 [Compound 594, 5-amino-4-(1H-benzimidazol-2-yl)-1-(1,3-benzodioxol-5-yl)-2H-pyrrol-3-one], COC(=O)c1c(N)n(-c2cccc(O)c2)c2nc3ccccc3nc12 [Compound 600, methyl 2-amino-1-(3-hydroxy-phenyl)pyrrolo [3,2-b]quinoxaline-3-carboxylate] is 1.8-fold lower in IC50: 4.07 µM for the first, 2.26 µM for the second. The second is the more potent here.

First: CN1CCN(c2ccc(Nc3nccc4[nH]c(-c5ccc(C(=O)N(C)C)cc5)cc34)cc2)CC1 [Compound 595, N,N-dimethyl-4-[4-[4-(4-methylpiperazin-1-yl)anilino]-1H-pyrrolo[3,2-c]pyridin-2-yl]benzamide]
Second: COc1ccccc1-c1cc2c(Nc3ccc(NC(C)=O)cc3)nccc2[nH]1 [Compound 597, N-[4-[[2-(2-methoxyphenyl)-1H-pyrrolo[3,2-c]pyridin-4-yl]amino]phenyl] acetamide]
The IC50 of the first is 4.3-fold lower: 7.04 µM for the first, 30 µM for the second. The first is the more potent here.

Compared with COc1cc(OC)cc(-c2cc3c(N4CCOCC4)nccc3[nH]2)c1 [Compound 596, 4-[2-(3,5-dimethoxy-phenyl)-1H-pyrrolo[3,2-c]pyridin-4-yl]morpholine], COc1ccc(OC)c(-n2c(-c3ccc(F)cc3)cn3c4c(=O)[nH]c(=O)n(C)c4nc23)c1 [Compound 599, 8-(2,5-dimethoxy-phenyl)-7-(4-fluorophenyl)-1-methyl-3H-imidazo [1,2-g]purine-2,4-dione] is 1.6-fold lower in IC50: 30 µM for the first, 18.4 µM for the second. The second is the more potent here.

For COc1ccccc1-c1cc2c(Nc3cccc(C(F)(F)F)c3)nccc2n1C [Compound 598, 2-(2-methoxyphenyl)-1-methyl-N-[3-(trifluoromethyl)phenyl]pyrrolo [3,2-c]pyridin-4-amine], the IC50 was 30 µM.

system: not given; assay: not given; details: Fyn knockout strains; cited from earlier work

In the case of CN(C)S(=O)(=O)c1ccc2c(c1)/C(=C/c1cc3c([nH]1)CCCC3)C(=O)N2 [SU6656], the “lipid utilization and energy utilization” value is listed as “no increase in either parameter”.

same assay, conditions: treated mice relative to untreated control mice; cited from earlier work

For CN(C)S(=O)(=O)c1ccc2c(c1)/C(=C/c1cc3c([nH]1)CCCC3)C(=O)N2 [SU6656], the fat mass is listed as “significantly reduced”.
